# Assay results reported in patent US20260335329A1, “PROTEIN PHOSPHATASE AGONIST AND USE” (priority 2022, published 2026).
# “And” between values parts separate entries of the source, which are not always exact repeats. Equal entries are not always repeated.
# Columns and labels:
# [1] = tested on: PP2A; assay: Okadaic acid-induced PP2A protein expression level in PC12 cells (Western Blot); type: cell-based; conditions: for PP2A (Western Blot signal) / PP2A(%): 24 h; for effect on the PP2A expression level: compound 1, 5 and 10 μmol/L, compared with okadaic acid only
# Procedure: PC12 cells were inoculated into a T25 culture flask. After the cells were attached to the wall, compound 1 and compound 2 were added, and then the cells were incubated for 2 h. 40 nmol/L okadaic acid was then added. Then, the cells were incubated for 24 h. The protein was extracted. Based on the Western Blot assay, the PP2A protein expression level in PC12 cells was detected through SDS-PAGE and transfer, immunoblotting, color development, and G: BOX chemiXR5 imaging.
# [2] = tested on: PC12 cells; assay: Survival rate of PC12 cells in the okadaic acid-induced injury model (CCK-8); type: cell-based; conditions: for viability at 0.1 µM / viability at 0.5 µM / viability at 1 µM / viability at 5 µM / viability at 10 µM: Rattus norvegicus, PC-12, 24 h; for viability at 0.1 µM / viability at 0.5 µM / viability at 1 µM / viability at 5 µM / viability at 10 µM / OD value at 450 nm, Mean ± SD / Survival rate %: 24 h, PC12 cells; for Survival rate %: 1440 min, 5 µM
# Procedure: PC12 cells were detached and counted. A cell suspension was prepared at 8.0×10^4 cells/mL. 100 μL of the cell suspension was added to each well of a 96-well cell culture plate. The 96-well cell culture plate was placed in an incubator at 37° C. in 5% CO2 and cultured for 24 h. In an experimental group, the PC12 cells were pre-incubated for 2 h in a culture medium containing a test compound (the concentrations of the compound were 0.1 μmol/L, 0.5 μmol/L, 1 μmol/L, 5 μmol/L, and 10 μmol/L respectively, and the concentrations of the compound were set according to the concentrations in Table 5, Table 6, Table 7, and Table 8). […] In addition, a negative control group (no test compound or okadaic acid added) and a model group (only okadaic acid added) were set. The 96-well cell culture plate was placed in an incubator at 37° C. in 5% CO2 and cultured for 24 h. The cells in the 96-well cell culture plate were stained with 10 μL of CCK-8 in each well, and then cultured in the incubator for 1 h to 2 h. The 96-well cell culture plate was shaken gently for 10 min to mix uniformly and remove bubbles from the 96-well cell culture plate. The OD value of each well at 2=450 nm was read by using a microplate reader. A survival rate of cells was calculated.
# Calculation formula for the cell survival rate: […]
# The effect of each compound on the survival rate of PC12 cells in the okadaic acid- and Aβ1-42-induced injury models was determined by the CCK-8 cell proliferation assay.
# [3] = tested on: PP2A; assay: PP2A protein expression level in PC12 cells treated with Aβ (Western Blot); type: cell-based; conditions: then Aβ 40 μmol/L; for PP2A (Western Blot signal) / PP2A protein expression level, β-actin(%): 2 h, 24 h
# Procedure: PC12 cells were cultured adherently. 0.1 μmol/L compound 2, 0.5 μmol/L compound 2, 1 μmol/L compound 2, 5 μmol/L compound 2, and 10 μmol/L compound 2 were added respectively. Then, the cells were incubated for 2 h. 40 μmol/L Aβ was then added. Then, the cells were incubated for 24 h. Total protein was extracted. PP2A activity was detected by the Western Blot assay.
# [4] = tested on: p-tauSer396 in SH-SY5Y cells; assay: Okadaic acid-induced phosphorylation of tau protein (p-tauSer396) in SH-SY5Y cells (Western Blot); type: cell-based, human; conditions: for p-tauSer396 level (%): 24 h, SEM
# Procedure: SH-SY5Y cells were cultured in vitro for 24 h in culture media containing different concentrations of compound 2. Then, the cells were treated with 40 nmol/L okadaic acid for 24 h. The p-tauSer396 level of the SH-SY5Y cells was measured by the Western Blot assay.
# [5] = tested on: PC12 cells; assay: Survival rate of PC12 cells in the Aβ1-42-induced injury model (CCK-8); type: cell-based; conditions: for OD value at 450 nm, Mean ± SD: 2 h, then Aβ1-42 40 μmol/L, 24 h, PC12 cells
# [6] = compound 1 μmol/L, 2 h, then okadaic acid 40 nmol/L
# [7] = compound 5 μmol/L, 2 h, then okadaic acid 40 nmol/L
# [8] = compound 10 μmol/L, 2 h, then okadaic acid 40 nmol/L
# [9] = compound 0.1 μmol/L, 2 h, then okadaic acid 50 nmol/L
# [10] = compound 0.5 μmol/L, 2 h, then okadaic acid 50 nmol/L
# [11] = compound 1 μmol/L, 2 h, then okadaic acid 50 nmol/L
# [12] = compound 5 μmol/L, 2 h, then okadaic acid 50 nmol/L
# [13] = compound 10 μmol/L, 2 h, then okadaic acid 50 nmol/L
# [14] = compound 0.1 μmol/L, PC12 cells
# [15] = compound 0.5 μmol/L, PC12 cells
compound,measurement,setting,value
"N=c1oc2cc(CO)nn2c2ccccc12 [Compound 1, (5-imino-5H-benzo[d]pyrazolo[5,1-b][1,3]oxazin-2-yl) methanol]",PP2A (Western Blot signal),[1]; [6],437.09
same,PP2A(%),[1]; [6],14%
same,PP2A (Western Blot signal),[1]; [7],625.9
same,PP2A(%),[1]; [7],17%
same,PP2A (Western Blot signal),[1]; [8],953.23
same,PP2A(%),[1]; [8],22%
same,effect on the PP2A expression level,[1],can significantly increase the PP2A expression level dose-dependently
same,viability at 0.1 µM,[2]; [9],58.2%
same,viability at 0.5 µM,[2]; [10],60.2%
same,viability at 1 µM,[2]; [11],63.1%
same,viability at 5 µM,[2]; [12],70.5%
same,viability at 10 µM,[2]; [13],76.6%
same,survival rate compared with okadaic acid model group,[2]; compound 0.1 μmol/L,statistical difference (P<0.05)
same,"OD value at 450 nm, Mean ± SD",[2]; [9],1.337 ± 0.008
same,"OD value at 450 nm, Mean ± SD",[2]; [10],1.382 ± 0.013
same,"OD value at 450 nm, Mean ± SD",[2]; [11],1.449 ± 0.013
same,Survival rate %,[2]; [12],71.70%
same,"OD value at 450 nm, Mean ± SD",[2]; [13],1.76 ± 0.032
same,survival rate compared with okadaic acid model group,"[2]; compound 0.5, 1, 5 and 10 μmol/L",significant statistical differences (P<0.01)
"COCc1cc2oc(=N)c3ccccc3n2n1 [Compound 2, 2-(methoxymethyl)-5H-benzo[d]pyrazolo[5,1-b][1,3]oxazin-5-imine]",PP2A (Western Blot signal),[3]; [14],1025.7
same,"PP2A protein expression level, β-actin(%)",[3]; [14],31.24%
same,PP2A (Western Blot signal),[3]; [15],1129.7
same,"PP2A protein expression level, β-actin(%)",[3]; [15],33.18%
same,PP2A (Western Blot signal),"[3]; compound 1 μmol/L, PC12 cells",1180.1
same,"PP2A protein expression level, β-actin(%)","[3]; compound 1 μmol/L, PC12 cells",33.51%
same,PP2A (Western Blot signal),"[3]; compound 5 μmol/L, PC12 cells",1284.7
same,"PP2A protein expression level, β-actin(%)","[3]; compound 5 μmol/L, PC12 cells",35.61%
same,PP2A (Western Blot signal),"[3]; compound 10 μmol/L, PC12 cells",2192.1
same,"PP2A protein expression level, β-actin(%)","[3]; compound 10 μmol/L, PC12 cells (normal cells 58.95%)",58.59%
same,effect on PP2A protein expression level,"[3]; compound 10 μmol/L, PC12 cells",can significantly increase the PP2A protein expression level
same,effect on PP2A protein expression level,"[3]; compound 0.1, 0.5, 1 and 5 μmol/L, PC12 cells","can increase the PP2A protein expression level in PC12 cells that is reduced due to Aβ, in a specific dose-effect relationship"
same,PP2A (Western Blot signal),[1]; [6],557.1
same,PP2A(%),[1]; [6],14%
same,PP2A (Western Blot signal),[1]; [7],688.01
same,PP2A(%),[1]; [7],18%
same,PP2A (Western Blot signal),[1]; [8],1130.4
same,PP2A(%),[1]; [8],29%
same,effect on the PP2A expression level,[1],can significantly increase the PP2A expression level dose-dependently
same,okadaic acid-induced phosphorylation of tau protein,[4]; compared with okadaic acid only,can significantly inhibit okadaic acid-induced phosphorylation of tau protein in cells
same,p-tauSer396 level (%),"[4]; compound 0.1 μmol/L, then okadaic acid 40 nmol/L, n = 3",0.761 ± 0.008%
same,p-tauSer396 level (%),"[4]; compound 0.3 μmol/L, then okadaic acid 40 nmol/L, n = 3",0.663 ± 0.027%
same,change of p-tauSer396 level,[4]; compound 1.0 μmol/L and 3.0 μmol/L,decreases significantly (P<0.05)
same,p-tauSer396 level (%),"[4]; compound 1.0 μmol/L, then okadaic acid 40 nmol/L, n = 3, P<0.05 vs negative control",0.557 ± 0.013 %
same,p-tauSer396 level (%),"[4]; compound 3.0 μmol/L, then okadaic acid 40 nmol/L, n = 3, P<0.05 vs negative control",0.578 ± 0.025 %
same,change of p-tauSer396 level,[4]; compound 10 μmol/L,decreases significantly (P<0.01)
same,p-tauSer396 level (%),"[4]; compound 10 μmol/L, then okadaic acid 40 nmol/L, n = 3, P<0.01 vs negative control",0.522 ± 0.016 %
same,viability at 0.1 µM,[2]; [9],49.2%
same,viability at 0.5 µM,[2]; [10],51%
same,viability at 1 µM,[2]; [11],59.4%
same,viability at 5 µM,[2]; [12],70.8%
same,viability at 10 µM,[2]; [13],78.4%
same,"OD value at 450 nm, Mean ± SD",[2]; [9],0.652 ± 0.018
same,"OD value at 450 nm, Mean ± SD",[2]; [10],0.676 ± 0.016
same,"OD value at 450 nm, Mean ± SD",[2]; [11],0.787 ± 0.028
same,"OD value at 450 nm, Mean ± SD",[2]; [12],0.92 ± 0.008 and 0.967 ± 0.018
same,Survival rate %,[2]; [12],72.93%
same,"OD value at 450 nm, Mean ± SD",[2]; [13],1.04 ± 0.017
same,survival rate compared with okadaic acid model group,[2]; compound 0.1 and 0.5 μmol/L,no statistical difference (P>0.05)
same,survival rate compared with okadaic acid model group,"[2]; compound 1, 5 and 10 μmol/L",significant statistical differences (P<0.01)
same,viability at 0.1 µM,"[5]; Rattus norvegicus, PC-12, 24 h",50.7%
same,viability at 0.5 µM,"[5]; Rattus norvegicus, PC-12, 24 h",50.6%
same,viability at 1 µM,"[5]; Rattus norvegicus, PC-12, 24 h",55.7%
same,viability at 5 µM,"[5]; Rattus norvegicus, PC-12, 24 h",68.3%
same,viability at 10 µM,"[5]; Rattus norvegicus, PC-12, 24 h",79.1%
same,"OD value at 450 nm, Mean ± SD",[5]; compound 0.1 μmol/L,0.699 ± 0.027
same,"OD value at 450 nm, Mean ± SD",[5]; compound 0.5 μmol/L,0.698 ± 0.024
same,"OD value at 450 nm, Mean ± SD",[5]; compound 1 μmol/L,0.768 ± 0.015
same,"OD value at 450 nm, Mean ± SD",[5]; compound 5 μmol/L,0.941 ± 0.018
same,"OD value at 450 nm, Mean ± SD",[5]; compound 10 μmol/L,1.09 ± 0.026
same,survival rate compared with Aβ1-42 model group,[5]; compound 0.1 and 0.5 μmol/L,no statistical difference (P>0.05)
same,survival rate compared with Aβ1-42 model group,"[5]; compound 1, 5 and 10 μmol/L",statistical differences (P<0.01)
"COCCCc1cc2oc(=N)c3ccc(F)cc3n2n1 [Compound 18, 2-(methoxypropyl)-8-fluoro-5H-benzo[d]pyrazolo[5,1-b][1,3]oxazin-5-imine]",viability at 5 µM,[2]; [12],65.5%
same,"OD value at 450 nm, Mean ± SD",[2]; [12],0.851 ± 0.007
"C=C1[C@@H](O)[C@@H]2O[C@]3(CC[C@H](/C=C/[C@@H](C)[C@@H]4CC(C)=C[C@@]5(O[C@H](C[C@@](C)(O)C(=O)O)CC[C@H]5O)O4)O3)CC[C@H]2O[C@@H]1[C@@H](O)C[C@H](C)[C@H]1O[C@@]2(CCCCO2)CC[C@H]1C [Okadaic Acid, okadaic acid, reference compound]",PP2A (Western Blot signal),[1]; okadaic acid 40 nmol/L alone,339.39
same,PP2A(%),[1]; okadaic acid 40 nmol/L alone,8%
same,p-tauSer396 level (%),"[4]; okadaic acid 40 nmol/L alone (model group), n = 3",0.855 ± 0.023%
same,"OD value at 450 nm, Mean ± SD",[2]; okadaic acid 50 nmol/L alone (model group),0.643 ± 0.014 and 1.225 ± 0.018 and 0.669 ± 0.025
